Data on 29 compounds can be found in patent publication US9145414B2, “1,2,4-triazine-6-carboxamide derivative” (TAIHO PHARMACEUTICAL CO., LTD., priority 2011, dated 2015).

SMILES strings stand for the structures.

By IC50 is commonly meant the concentration that gives 50% inhibition.

The target in one assay is human Syk protein (Homo sapiens (Human), UniProt P43405). The assay is described as follows: Syk kinase inhibition test. It is filed as biochemical. The following applies: Table 95; read-out: SYK inhibitory activity IC50. As for the experimental part:
Finally, phosphorylated peptides and non-phosphorylated peptides were separated therebetween using LabChip™ 3000 system (Caliper Life Sciences, Inc., excitation wavelength: 488 nm, detection wavelength: 530 nm). Their respective amounts were measured, and the rate of phosphorylation reaction was then determined from the ratio between the amounts. The concentration at which the compound can inhibit 50% phosphorylation reaction is defined as an IC50 value (μM).
Also, known 1,2,4-triazine-6-carboxamide derivatives A, B, and C (WO2000/075113 (A: compound No. 121 and B: compound No. 154) and WO2000/076980 (C: compound No. 39)) were synthesized as control compounds. Their IC50 values (μM) were calculated in the same way as above and then compared with that of the compound of the present invention.
In the case of `NC(=O)c1ccc(NC2CCCCC2N)cc1Nc1ccccc1Br` (stereo not drawn) [A, reference compound], the IC50 is 33 nM.

Consider `NC(=O)c1nnc(N[C@@H]2CCCC[C@@H]2N)nc1Nc1cccc2c1ccn2[C@H]1CC[C@H](O)CC1` [Example 73, 3-(((1R,2S)-2-aminocyclohexyl)amino)-5-((1-(trans-4-hydroxycyclohexyl)-1H-indol-4-yl)amino)-1,2,4-triazine-6-carboxamide], for which the IC50 was determined as 0.37 nM.

In the case of `Cc1cc(Nc2nc(N[C@@H]3CCCC[C@@H]3N)nnc2C(N)=O)c2ccn(C)c2c1` [Example 60, 3-(((1R,2S)-2-aminocyclohexyl)amino)-5-((1,6-dimethyl-1H-indol-4-yl)amino)-1,2,4-triazine-6-carboxamide], the IC50 was 0.33 nM.

Turning to `NC(=O)c1nnc(N[C@@H]2CCCC[C@@H]2N)nc1Nc1cccc2c1ccn2C1COC1` [Example 34, 3-((1R,2S)-2-aminocyclohexylamino)-5-(1-(oxetan-3-yl)-H-indol-4-ylamino)-1,2,4-triazine-6-carboxamide], the 50% inhibitory concentration (IC50) came to 0.42 nM.

Consider `NC(=O)c1nnc(N[C@@H]2CCCC[C@@H]2N)nc1Nc1ccc2ncccc2c1` [Example 1, 3-((1R,2S)-2-aminocyclohexylamino)-5-(quinolin-6-ylamino)-1,2,4-triazine-6-carboxamide], for which the half-inhibitory concentration (IC50) amounted to 0.4 nM.

`NC(=O)c1nnc(N[C@@H]2CCCC[C@@H]2N)nc1Nc1ccc2nn(C3CCC3)cc2c1` [Example 11, 3-((1R,2S)-2-aminocyclohexylamino)-5-(2-cyclobutyl-2H-indazol-5-ylamino)-1,2,4-triazine-6-carboxamide]: the IC50 is 0.47 nM.

Turning to `CC(C)(C)n1cc2cc(Nc3nc(N[C@@H]4CCCC[C@@H]4N)nnc3C(N)=O)cc(-n3cccn3)c2n1` [Example 66, 3-(((1R,2S)-2-aminocyclohexyl)amino)-5-((2-(tert-butyl)-7-(1H-pyrazol-1-yl)-2H-indazol-5-yl)amino)-1,2,4-triazine-6-carboxamide], the IC50 came out at 0.61 nM.

For `NC(=O)c1nnc(N[C@@H]2CCCC[C@@H]2N)nc1Nc1cccc2sccc12` [Example 2, 3-((1R,2S)-2-aminocyclohexylamino)-5-(benzo[b]thiophen-4-ylamino)-1,2,4-triazine-6-carboxamide], the half-maximal inhibitory concentration (IC50) is 0.46 nM.

`Cn1ccc(-n2ccc3c(Nc4nc(NCC5(N)CCC5)nnc4C(N)=O)cccc32)n1` [Example 106, 3-(((1-aminocyclobutyl)methyl)amino)-5-((1-(1-methyl-1H-pyrazol-3-yl)-1H-indol-4-yl)amino)-1,2,4-triazine-6-carboxamide]: the IC50 stood at 0.85 nM.

Consider `CCn1ncc2c(Nc3nc(N[C@@H]4CCCC[C@@H]4N)nnc3C(N)=O)cccc21` [Example 107, 3-(((1R,2S)-2-aminocyclohexyl)amino)-5-((1-ethyl-1H-indazol-4-yl)amino)-1,2,4-triazine-6-carboxamide], for which the IC50 was found to be 0.61 nM.

As for `N#Cc1cc(Nc2nc(N[C@@H]3CCCC[C@@H]3N)nnc2C(N)=O)c2ccsc2c1` [Example 208], the IC50 is 0.4 nM.

As to `CC(C)(C)n1cc2cc(Nc3nc(N[C@@H]4CCOC[C@@H]4N)nnc3C(N)=O)cc(Cl)c2n1` [Example 100, 3-(((3R,4R)-3-aminotetrahydro-2H-pyran-4-yl)amino)-5-((2-(tert-butyl)-7-chloro-2H-indazol-5-yl)amino)-1,2,4-triazine-6-carboxamide], the IC50 is 0.41 nM.

As to `CCn1nc(C)c2cc(Nc3nc(N[C@@H]4CCCC[C@@H]4N)nnc3C(N)=O)ccc21` [Example 56, 3-((1R,2S)-2-aminocyclohexylamino)-5-(1-ethyl-3-methyl-1H-indazol-5-ylamino)-1,2,4-triazine-6-carboxamide], the concentration for half-maximal inhibition (IC50) is 0.5 nM.

Take `Cc1cc(Nc2nc(N[C@@H]3CCCC[C@@H]3N)nnc2C(N)=O)cc2cn(C(F)F)nc12` [Example 62, 3-(((1R,2S)-2-aminocyclohexyl)amino)-5-((2-(difluoromethyl)-7-methyl-2H-indazol-5-yl)amino)-1,2,4-triazine-6-carboxamide]: the IC50 is 0.37 nM.

On to `NC(=O)c1nnc(N[C@@H]2CCCC[C@@H]2N)nc1Nc1cncc(C2CC2)c1` [Example 16, 3-((1R,2S)-2-aminocyclohexylamino)-5-(5-cyclopropylpyridin-3-ylamino)-1,2,4-triazine-6-carboxamide], for which the IC50 is 0.94 nM.

`CCOC[C@H](N)[C@@H](C)Nc1nnc(C(N)=O)c(Nc2cc(C)c3ncccc3c2)n1` [Example 282]: the IC50 stood at 0.48 nM.

In the case of `Cc1cc(Nc2nc(N[C@@H]3CCOC[C@@H]3N)nnc2C(N)=O)cc2cn(C(C)(C)CO)nc12` [Example 99, 3-(((3R,4R)-3-aminotetrahydro-2H-pyran-4-yl)amino)-5-((2-(1-hydroxy-2-methylpropan-2-yl)-7-methyl-2H-indazol-5-yl)amino)-1,2,4-triazine-6-carboxamide], the IC50 stood at 0.63 nM.

Regarding `COC[C@H](N)[C@@H](C)Nc1nnc(C(N)=O)c(Nc2cc(C)c3c(cnn3C(C)C)c2)n1` [Example 284], the IC50 came to 0.34 nM.

Take `CCn1cc2ccc(Nc3nc(N[C@@H]4CCCCC[C@@H]4N)nnc3C(N)=O)cc2n1` [Example 316, 3-(((1R,2S)-2-aminocycloheptyl)amino)-5-((2-ethyl-2H-indazol-6-yl)amino)-1,2,4-triazine-6-carboxamide]: the IC50 turned out to be 0.31 nM.

As to `NC(=O)c1nnc(N[C@@H]2CCCC[C@@H]2N)nc1Nc1cc(-c2ncccn2)cs1` [Example 76, 3-(((1R,2S)-2-aminocyclohexyl)amino)-5-((4-(pyrimidin-2-yl)thiophen-2-yl)amino)-1,2,4-triazine-6-carboxamide], the IC50 was 0.55 nM.

Consider `CCn1nc(C)c2ccc(Nc3nc(N[C@@H]4CCCC[C@@H]4N)nnc3C(N)=O)cc21` [Example 50, 3-((1R,2S)-2-aminocyclohexylamino)-5-(1-ethyl-3-methyl-1H-indazol-6-ylamino)-1,2,4-triazine-6-carboxamide], for which the IC50 stood at 0.42 nM.

Regarding `Cc1cc2c(Nc3nc(N[C@@H]4CCCC[C@@H]4N)nnc3C(N)=O)cccc2n1C1CC1` [Example 33, 3-((1R,2S)-2-aminocyclohexylamino)-5-(1-cyclopropyl-2-methyl-H-indol-4-ylamino)-1,2,4-triazine-6-carboxamide], the IC50 is 0.71 nM.

Regarding `[2H]C([2H])([2H])C([2H])([2H])n1ncc2cc(Nc3nc(N[C@@H]4CCCC[C@@H]4N)nnc3C(N)=O)ccc21` [Example 5, 3-((1R,2S)-2-aminocyclohexylamino)-5-(1-(ethyl-d5)-1H-indazol-5-ylamino)-1,2,4-triazine-6-carboxamide], the IC50 turned out to be 0.52 nM.

On to `Cn1cc(-c2cc(Nc3nc(N[C@@H]4CCCC[C@@H]4N)nnc3C(N)=O)c3cnn(C)c3c2)cn1` [Example 13, 3-((1R,2S)-2-aminocyclohexylamino)-5-(1-methyl-6-(1-methyl-1H-pyrazol-4-yl)-1H-indazol-4-ylamino)-1,2,4-triazine-6-carboxamide], for which the IC50 was 0.49 nM.

`NC(=O)c1nnc(N[C@@H]2CCCC[C@@H]2N)nc1Nc1cccc2nn(C(F)F)cc12` [Example 209]: the half-inhibitory concentration (IC50) was 0.33 nM.

For `COc1ccc2sc(Nc3nc(N[C@@H]4CCCC[C@@H]4N)nnc3C(N)=O)c(C)c2c1` [Example 48, 3-((1R,2S)-2-aminocyclohexylamino)-5-(5-methoxy-3-methylbenzo[b]thiophen-2-ylamino)-1,2,4-triazine-6-carboxamide], the IC50 was 0.27 nM.

As to `CCn1ncc2c(C)cc(Nc3nc(N[C@@H]4CCOC[C@@H]4N)nnc3C(N)=O)cc21` [Example 310], the IC50 came to 0.59 nM.

Take `CCn1ncc2cc(Nc3nc(N[C@H](C)[C@@H](N)COC)nnc3C(N)=O)cc(C)c21` [Example 311, 3-(((2R,3R)-3-amino-4-methoxybutan-2-yl)amino)-5-((1-ethyl-7-methyl-1H-indazol-5-yl)amino)-1,2,4-triazine-6-carboxamide]: the IC50 worked out at 0.55 nM.

The test system of another assay is SU-DHL-6 cells (diffuse large-cell lymphoma cell line). The assay is described as follows: Cell growth inhibition test. It is filed as cell-based. The following applies: Homo sapiens, 72 h; SU-DHL-6 cells, 3 days culture, Table 96; read-out: Cell growth inhibition IC50. As for the experimental part:
The compound of the present invention was serially diluted with dimethyl sulfoxide and then added to an RPMI1640 medium containing 10% FBS. Each resulting solution was added at a concentration of 100 μl/well to the preceding SU-DHL-6 cell culture plate (final concentration of the compound: 10, 3, 1, 0.3, 0.1, 0.03, 0.01, and 0.003 μM). The cells were cultured at 37° C. for 3 days in an incubator containing 5% CO2. The cells thus cultured were left at room temperature for 30 minutes and then centrifuged at 1500 rpm for 3 minutes using a centrifuge (Hitachi Koki Co., Ltd., Himac CF7D2). A 100 μl aliquot of the supernatant was removed from each well to allow 100 μl of the cell culture solution to remain therein. This 100 μl of the remaining cell culture solution was supplemented with an equal amount of CellTiter-Glo Luminescent Cell Viability Assay (Promega KK, Cat#: G7573), and the mixture was then shaken for 1 minute using a plate mixer. The reaction solution was left in the dark for 10 minutes. Then, luminescence intensity derived from live cells of each well was measured using a microplate reader (PerkinElmer Inc., ARVOsx). […] Likewise, the IC50 values (μM) of the control compounds were also calculated and then compared with that of the compound of the present invention. Rate of cell growth inhibition(%)=(C−T)/C×100 T: luminescence intensity (count per second) of a well supplemented with the test compound C: luminescence intensity (count per second) of a well non-supplemented with the test compound
With `CCn1ccc2c(Nc3nc(N[C@@H]4CCCC[C@@H]4N)nnc3C(N)=O)cccc21` [Example 17, 3-((1R,2S)-2-aminocyclohexylamino)-5-(1-ethyl-1H-indol-4-ylamino)-1,2,4-triazine-6-carboxamide], the IC50 worked out at 76 nM.

With `NC(=O)c1nnc(N[C@@H]2CCCC[C@@H]2N)nc1Nc1cccc2c1ccn2[C@H]1CC[C@H](O)CC1` [Example 73, 3-(((1R,2S)-2-aminocyclohexyl)amino)-5-((1-(trans-4-hydroxycyclohexyl)-1H-indol-4-yl)amino)-1,2,4-triazine-6-carboxamide], the IC50 came out at 53 nM.

Turning to `Cc1cc(Nc2nc(N[C@@H]3CCCC[C@@H]3N)nnc2C(N)=O)c2ccn(C)c2c1` [Example 60, 3-(((1R,2S)-2-aminocyclohexyl)amino)-5-((1,6-dimethyl-1H-indol-4-yl)amino)-1,2,4-triazine-6-carboxamide], the concentration for half-maximal inhibition (IC50) worked out at 106 nM.

On to `NC(=O)c1nnc(N[C@@H]2CCCC[C@@H]2N)nc1Nc1cccc2c1ccn2C1COC1` [Example 34, 3-((1R,2S)-2-aminocyclohexylamino)-5-(1-(oxetan-3-yl)-H-indol-4-ylamino)-1,2,4-triazine-6-carboxamide], for which the IC50 stood at 65 nM.

The same assay, now with this note: SU-DHL-6 cells, 3 days culture, Table 96; read-out: Cell growth inhibition IC50.
Turning to `NC(=O)c1ccc(NC2CCCCC2N)cc1Nc1ccccc1Br` (stereo not drawn) [A, reference compound], the IC50 is 2000 nM.
